Earlier results on three molecules are cited in patent US6399093B1, “Method and composition to treat musculoskeletal disorders” (Advanced Medical Instruments, priority 1999, dated 2002).

The conditions of series [1]: after oral administration.
For series [2] the following is noted: oral.
For series [3] the following is noted: oral diclofenac group.

Consider `N[C@H]1C(O)O[C@H](CO)[C@@H](O)[C@@H]1O.O=S(=O)(O)O` (stereo partly drawn) [glucosamine sulfate], for which the “Onset of clinical improvement of symptoms” value in series [1] is listed as “one”. Turning to `COc1cc2c(c(OC)c1OC)-c1ccc(OC)c(=O)cc1[C@@H](NC(C)=O)CC2` [colchicine, Colchicine], the “Patients unable to tolerate an optimal dose because of gastrointestinal side effects” value in series [2] is given as “Eighty”. In the case of `O=C(O)Cc1ccccc1Nc1c(Cl)cccc1Cl` [diclofenac], in series [3], the “Number of GI reactions relative to the topical eltenac group” value is recorded as “three”.
